Active and inactive are the calls of the source. The calls are words filed in the database; no cut-off is given here.
Columns and labels:
[1] = tested on: Mus musculus; assay: Prevention of myocardial hypoxia injury in isoproterenol-induced male C57 mouse myocardial injury model assessed as decrease in mTORC1 expression at 8 to 16 mg/kg, ip once daily for 3 consecutive days by immunohistochemistry; format: functional, organism-based; details: dose 8-16 mg/kg, time 3.0 day
[2] = tested on: Mus musculus; assay: Prevention of myocardial hypoxia injury in isoproterenol-induced male C57 mouse myocardial injury model assessed as decrease in ACE expression at 8 to 16 mg/kg, ip once daily for 3 consecutive days by immunohistochemistry; format: functional, organism-based; details: dose 8-16 mg/kg, time 3.0 day
[3] = AUC (0 to last) in female Balb/c at 8 mg/kg, ip mouse measured up to 24 hrs by LC-MS/MS analysis; format: ADME, organism-based; details: in vivo
[4] = tested on: Mus musculus; assay: (§1) Prevention of myocardial hypoxia injury in isoproterenol-induced male C57 mouse myocardial injury model assessed as pathological myocardial change by measuring cellular arrangements at 8 to 16 mg/kg, IG once daily for 3 consecutive days by hematoxylin and eosin staining based analysis; format: functional, organism-based; details: dose 8-16 mg/kg, time 3.0 day
[5] = tested on: Mus musculus; assay: Prevention of myocardial hypoxia injury in isoproterenol-induced male C57 mouse myocardial injury model assessed as heart weight ratio at 8 mg/kg, ip once daily for 3 consecutive days (reference value: 0.60%); format: functional; details: time 3 day
[6] = tested on: Mus musculus; assay: Prevention of myocardial hypoxia injury in isoproterenol-induced male C57 mouse myocardial injury model assessed as increase in NO level in heart tissue at 16 mg/kg, ip once daily for 3 consecutive days; format: functional, organism-based; details: time 3.0 day
[7] = tested on: Mus musculus; assay: as §1, with “improvement in disorganized cell arrangement” for “cellular arrangements”, “ip” for “IG”; format: functional, organism-based; details: dose 8-16 mg/kg, time 3.0 day
[8] = tested on: Mus musculus; assay: Prevention of myocardial hypoxia injury in isoproterenol-induced male C57 mouse myocardial injury model assessed as prevention of lamellar collagen fiber deposition at 8 to 16 mg/kg, ip once daily for 3 consecutive days by Masson staining based analysis; format: functional, organism-based; details: dose 8-16 mg/kg, time 3.0 day
[9] = tested on: H9c2; assay: Induction of NO release in rat H9c2 cells under hypoxia condition by Griess reagent assay relative to control; format: functional, cell-based
[10] = tested on: H9c2; assay: Induction of NO release in rat H9c2 cells under normoxic condition at 10 uM measured for 4 hrs by Griess reagent assay relative to control; format: functional
[11] = tested on: H9c2; assay: Prevention of hypoxia-induced TSC2-P expression in rat H9c2 cells assessed as inhibition of TSC2-P overexpression at 10 uM measured after 4 hrs incubation; format: functional, cell-based
[12] = tested on: H9c2; assay: Prevention of hypoxia-induced decrease in ATP level in rat H9c2 cells at 10 uM […] (Rvb =- 19.6 nmol/mg); format: ADME, cell-based; details: h9c2, 10 µM
[13] = tested on: H9c2; assay: Prevention of hypoxia-induced apoptosis in rat H9c2 cells assessed as decrease in late apoptosis and necrosis by measuring reduced red fluorescence at 10 uM incubated for 4 hrs by confocal microscopy with Annexin V-FITC and propidium iodide (PI) double staining analysis; format: functional, cell-based
[14] = Half life in female Balb/c mouse at 8 mg/kg, ip measured up to 24 hrs by LC-MS/MS analysis; format: ADME, organism-based; details: in vivo
[15] = tested on: Mus musculus; assay: Prevention of myocardial hypoxia injury in isoproterenol-induced male C57 mouse myocardial injury model assessed as pathological myocardial change by absence of infarction areas at 8 to 16 mg/kg, ip once daily for 3 consecutive days by hematoxylin and eosin staining based analysis; format: functional, organism-based; details: dose 8-16 mg/kg, time 3.0 day
[16] = tested on: Mus musculus; assay: Prevention of myocardial hypoxia injury in isoproterenol-induced male C57 mouse myocardial injury model assessed as reduction in cardiac troponin (CK) at 5 mg/kg, ip once daily for 3 consecutive days by immunohistochemistry; format: functional, organism-based; details: time 3.0 day
[17] = tested on: Mus musculus; assay: Prevention of myocardial hypoxia injury in isoproterenol-induced male C57 mouse myocardial injury model assessed as decrease in myocardial size at 8 mg/kg, ip once daily for 3 consecutive days (reference value: 6.47 mm); format: functional; details: time 3 day
[18] = AUC (0 to infinity) in female Balb/c at 8 mg/kg, ip mouse measured up to 24 hrs by LC-MS/MS analysis; format: ADME, organism-based; details: in vivo
[19] = tested on: Mus musculus; assay: Prevention of myocardial hypoxia injury in isoproterenol-induced male C57 mouse myocardial injury model assessed as reduction in creatine kinase-MB (CK-MB) at 5 mg/kg, ip once daily for 3 consecutive days by immunohistochemistry; format: functional, organism-based; details: time 3.0 day
[20] = tested on: Mus musculus; assay: Prevention of myocardial hypoxia injury in isoproterenol-induced male C57 mouse myocardial injury model assessed as prevention of bundle collagen fiber deposition at 8 to 16 mg/kg, ip once daily for 3 consecutive days by Masson staining based analysis; format: functional, organism-based; details: dose 8-16 mg/kg, time 3.0 day
[21] = Toxicity in male C57 mouse assessed as physiological distress at 900 mg/kg, ip measured after 12 hrs of administration; format: organism-based; details: in vivo
[22] = tested on: Mus musculus; assay: Prevention of myocardial hypoxia injury in isoproterenol-induced male C57 mouse myocardial injury model assessed as pathological myocardial change by clear vascular boundaries at 8 to 16 mg/kg, ip once daily for 3 consecutive days by hematoxylin and eosin staining based analysis; format: functional, organism-based; details: dose 8-16 mg/kg, time 3.0 day
[23] = Toxicity in isoproterenol-induced male C57 mouse assessed as body weight change at 8 mg/kg, ip once daily for 3 consecutive days; format: organism-based; details: in vivo, 72 h, time 3 day
[24] = tested on: Mus musculus; assay: Prevention of myocardial hypoxia injury in isoproterenol-induced male C57 mouse myocardial injury model assessed as decrease in heart weight ratio at 8 mg/kg, ip once daily for 3 consecutive days (reference value: 0.68%); format: functional; parameters: scale not given: the % may be the effect or the level left; details: time 3 day
[25] = Toxicity in male C57 mouse assessed as adverse effect at 900 mg/kg, ip measured up to 14 days observation period; format: organism-based; details: in vivo, 336 h, time < 14 day
[26] = tested on: H9c2; assay: Prevention of hypoxia-induced mTORC1 expression in rat H9c2 cells assessed as inhibition of mTORC1 overexpression at 10 uM measured after 4 hrs incubation; format: functional, cell-based
[27] = Toxicity in male C57 mouse assessed as mortality at 900 mg/kg, ip measured up to 14 days observation period; format: organism-based; details: in vivo, 336 h, time < 14 day
[28] = tested on: Mus musculus; assay: Prevention of myocardial hypoxia injury in isoproterenol-induced male C57 mouse myocardial injury model assessed as reduction in creatine kinase-MB (CK-MB) at 8 to 16 mg/kg, ip once daily for 3 consecutive days by immunohistochemistry; format: functional, organism-based; details: dose 8-16 mg/kg, time 3.0 day
[29] = Tmax in female Balb/c mouse at 8 mg/kg, ip measured up to 24 hrs by LC-MS/MS analysis; format: ADME, organism-based; details: in vivo
[30] = tested on: H9c2; assay: Prevention of hypoxia-induced apoptosis in rat H9c2 cells assessed as decrease in early apoptosis by measuring reduced green fluorescence at 10 uM incubated for 4 hrs by confocal microscopy with Annexin V-FITC and propidium iodide (PI) double staining analysis; format: functional, cell-based
[31] = tested on: Mus musculus; assay: Prevention of myocardial hypoxia injury in isoproterenol-induced male C57 mouse myocardial injury model assessed as increase in NO level in heart tissue at 8 mg/kg, ip once daily for 3 consecutive days; format: functional, organism-based; details: time 3.0 day
[32] = tested on: H9c2; assay: Prevention of hypoxia-induced decrease cell viability of rat H9c2 cells at 10 uM by CCK8 assay; format: functional, cell-based
[33] = tested on: Mus musculus; assay: Prevention of myocardial hypoxia injury in isoproterenol-induced male C57 mouse myocardial injury model assessed as increase in NO level in myocardial tissue at 8 to 16 mg/kg, IG once daily for 3 consecutive days; format: functional, organism-based; details: dose 8-16 mg/kg, time 3.0 day
[34] = tested on: Mus musculus; assay: Prevention of myocardial hypoxia injury in isoproterenol-induced male C57 mouse myocardial injury model assessed as reduction in creatine kinase (CK) at 8 to 16 mg/kg, ip once daily for 3 consecutive days by immunohistochemistry; format: functional, organism-based; details: dose 8-16 mg/kg, time 3.0 day

**Q.** For `CN(N=O)c1ccc(OCc2ccc([N+](=O)[O-])c(F)c2)cc1`, which Activity [1] is on record?
**A.** The Activity was “Active”.

**Q.** What about the Activity [2] of the same molecule?
**A.** Its Activity is “Active”.

**Q.** And the AUC(0-t) at 24 h [3]?
**A.** The AUC(0-t) at 24 h was 626 ng·h/mL.

**Q.** And the Activity [4]?
**A.** Its Activity is “Active”.

**Q.** What about the Activity [5] of the same molecule?
**A.** The Activity was 0.54%.

**Q.** What about the Activity [6] of the same molecule?
**A.** The Activity was “Active”.

**Q.** And the Activity [7]?
**A.** The Activity was “Active”.

**Q.** What about the Activity [8] of the same molecule?
**A.** Its Activity is “Active”.

**Q.** And the Activity [9]?
**A.** Its Activity is “Dose-dependent-effect”.

**Q.** What about the Activity [10] of the same molecule?
**A.** The Activity was 20%.

**Q.** And the Activity [11]?
**A.** Its Activity is “Active”.

**Q.** And the Activity [12]?
**A.** The Activity was 37.9 nmol/mg.

**Q.** And the Activity [13]?
**A.** Its Activity is “Active; Reduced Red Fluorescence To Certain Extents”.

**Q.** And the half-life [14]?
**A.** The half-life was 143 min.

**Q.** What about the Activity [15] of the same molecule?
**A.** Its Activity is “Active”.

**Q.** What about the Activity [16] of the same molecule?
**A.** Its Activity is “Active”.

**Q.** And the Activity [17]?
**A.** The Activity was 2.53 mm.

**Q.** And the AUC [18]?
**A.** Its AUC is 640 ng·h/mL.

**Q.** And the Activity [19]?
**A.** The Activity was “Active”.

**Q.** What about the Activity [20] of the same molecule?
**A.** Its Activity is “Active”.

**Q.** And the Activity [21]?
**A.** The Activity was “Non-toxic”.

**Q.** What about the Activity [22] of the same molecule?
**A.** The Activity was “Active”.

**Q.** What about the Activity [23] of the same molecule?
**A.** The Activity was “Non-toxic”.

**Q.** And the Activity [24]?
**A.** Its Activity is 0.53%.

**Q.** What about the Activity [25] of the same molecule?
**A.** The Activity was “Non-toxic”.

**Q.** What about the Activity [26] of the same molecule?
**A.** The Activity was “Active”.

**Q.** What about the Activity [27] of the same molecule?
**A.** The Activity was “Non-toxic”.

**Q.** And the Activity [28]?
**A.** The Activity was “Active”.

**Q.** What about the Tmax [29] of the same molecule?
**A.** Its Tmax is 2.08 h.

**Q.** What about the Activity [30] of the same molecule?
**A.** The Activity was “Active; Green Fluorescence Intensity Wes Lower Than Ismn Treated Cells”.

**Q.** And the Activity [31]?
**A.** The Activity was “Active”.

**Q.** What about the Activity [32] of the same molecule?
**A.** Its Activity is “Active; Partially Restores Cell Viability”.

**Q.** And the Activity [33]?
**A.** The Activity was “Active”.

**Q.** What about the Activity [34] of the same molecule?
**A.** The Activity was “Active”.

Source: ChEMBL document CHEMBL6087446, “Hypoxia Activated Nitric Oxide Donor Compounds for the Prevention and Treatment of Myocardial Hypoxia-Induced Injury” (J Med Chem, 2025)
